Data from US20240150377A1, “MODULATORS OF CYSTIC FIBROSIS TRANSMEMBRANE CONDUCTANCE REGULATOR” (VERTEX PHARMACEUTICALS INCORPORATED, priority 2020, published 2024).
Like-named read-outs stand apart in the source and are kept apart here.

Molecular target: T1, CFTR (Homo sapiens, UniProt P13569, DEL508-508)
T1 construct: endogenous in cells; host or cells: primary human bronchial epithelial cells from CF subjects (F508del/MF-HBE), differentiated at air-liquid interface
Assay: HBE assay: Ussing chamber assay of CFTR-mediated short-circuit currents
Assay type: cell-based
Conditions: for EC50: read-out: HBE EC50
Method in brief: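 CFTR-mediated Isc (μA/cm²) equals the peak response to apical 20 μM forskolin minus the residual after a 20 μM each BPO/GlyH-101/CFTR inhibitor 172 cocktail, recorded in Ussing chambers at Vhold 0 mV, 37 °C, pH 7.4, with 30 μM apical amiloride. Cells were F508del/MF HBE cultures preincubated 18-24 h with corrector (concentration range or 10 μM) plus 1 μM ivacaftor in 20% human serum.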

[1] = Table 10, read-out: HBE activity at 10 (μM) (%)
[2] = Table 11, read-out: HBE Activity at 10 μM (%)
[3] = Table 10, read-out: HBE Max activity (%)
[4] = Table 11, read-out: HBE Max Activity (%)

T1 sequence (P13569 with tags, fused parts or gaps DEL508-508): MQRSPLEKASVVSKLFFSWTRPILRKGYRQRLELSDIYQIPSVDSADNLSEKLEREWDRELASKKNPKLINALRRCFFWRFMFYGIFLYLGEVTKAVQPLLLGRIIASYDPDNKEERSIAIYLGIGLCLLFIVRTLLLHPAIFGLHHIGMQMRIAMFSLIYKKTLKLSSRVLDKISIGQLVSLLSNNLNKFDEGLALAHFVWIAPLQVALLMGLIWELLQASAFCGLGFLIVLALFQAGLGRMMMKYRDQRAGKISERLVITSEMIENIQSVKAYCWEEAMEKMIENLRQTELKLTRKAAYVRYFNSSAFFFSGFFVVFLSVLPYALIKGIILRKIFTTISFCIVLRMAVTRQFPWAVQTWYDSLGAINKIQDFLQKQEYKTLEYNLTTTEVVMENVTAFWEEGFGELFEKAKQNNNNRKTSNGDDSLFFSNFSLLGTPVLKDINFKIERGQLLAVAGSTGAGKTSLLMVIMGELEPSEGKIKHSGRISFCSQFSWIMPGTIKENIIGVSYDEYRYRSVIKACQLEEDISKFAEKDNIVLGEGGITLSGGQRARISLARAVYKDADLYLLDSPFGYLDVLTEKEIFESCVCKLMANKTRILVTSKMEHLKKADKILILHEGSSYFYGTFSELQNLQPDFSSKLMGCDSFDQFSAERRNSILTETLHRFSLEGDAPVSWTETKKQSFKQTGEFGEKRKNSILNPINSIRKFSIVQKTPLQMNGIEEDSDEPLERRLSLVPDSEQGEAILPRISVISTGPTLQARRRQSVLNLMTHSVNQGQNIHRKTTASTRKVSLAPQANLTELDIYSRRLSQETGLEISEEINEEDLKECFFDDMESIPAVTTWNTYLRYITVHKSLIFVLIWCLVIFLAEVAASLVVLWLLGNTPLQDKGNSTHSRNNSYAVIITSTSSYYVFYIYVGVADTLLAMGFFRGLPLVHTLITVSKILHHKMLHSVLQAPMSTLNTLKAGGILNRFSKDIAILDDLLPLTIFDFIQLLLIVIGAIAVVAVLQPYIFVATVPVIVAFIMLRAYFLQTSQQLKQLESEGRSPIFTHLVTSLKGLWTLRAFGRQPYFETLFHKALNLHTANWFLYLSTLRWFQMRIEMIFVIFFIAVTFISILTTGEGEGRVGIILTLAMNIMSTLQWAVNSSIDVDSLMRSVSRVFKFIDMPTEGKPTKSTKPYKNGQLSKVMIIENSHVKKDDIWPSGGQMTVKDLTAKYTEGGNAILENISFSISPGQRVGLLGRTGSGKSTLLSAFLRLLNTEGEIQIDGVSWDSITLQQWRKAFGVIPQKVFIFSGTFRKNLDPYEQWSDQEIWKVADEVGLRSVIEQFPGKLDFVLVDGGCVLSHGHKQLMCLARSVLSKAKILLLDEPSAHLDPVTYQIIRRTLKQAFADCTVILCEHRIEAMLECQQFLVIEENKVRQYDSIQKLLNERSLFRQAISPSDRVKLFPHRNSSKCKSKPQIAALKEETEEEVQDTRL

Compound: Cc1cccc(C)c1-c1cc2nc(n1)NS(=O)(=O)c1cccc(c1)C1Oc3ccc4ncccc4c3CN1[C@H](CC(C)(C)C)CO2 (stereo partly shown) [Compound 750]
- activation at 10 µM [1]: > 60%

Compound: Cc1cccc(C)c1-c1cc2nc(n1)NS(=O)(=O)c1cccc(c1)C1Oc3ccc4cccnc4c3CN1[C@H](CC(C)(C)C)CO2 (stereo partly shown) [Compound 751]
- activation at 10 µM [1]: > 60%

Compound: Cc1cccc(C)c1-c1cc2nc(n1)NS(=O)(=O)c1cccc(c1)C1Oc3cnc4ccccc4c3CN1[C@H](CC(C)(C)C)CO2 (stereo partly shown) [Compound 752]
- activation at 10 µM [1]: < 300%

Compound: Cc1cccc(C)c1-c1cc2nc(n1)NS(=O)(=O)c1cccc(c1)C1Oc3ncc4ccccc4c3CN1[C@H](CC(C)(C)C)CO2 (stereo partly shown) [Compound 753]
- activation at 10 µM [1]: 30 to 60%

Compound: COc1ccc2nc3c(cc2c1)CN1C(O3)c2cccc(c2)S(=O)(=O)Nc2nc(cc(-c3c(C)cccc3C)n2)OC[C@H]1CC(C)(C)C (stereo partly shown) [Compound 754]
- activation at 10 µM [1]: > 60%

Compound: Cc1cccc(C)c1-c1cc2nc(n1)NS(=O)(=O)c1cccc(c1)C1Oc3nc4ccccc4cc3CN1[C@H](CC(C)(C)C)CO2 (stereo partly shown) [Compound 755]
- activation at 10 µM [1]: > 60%

Compound: Cc1cccc(C)c1-c1cc2nc(n1)NS(=O)(=O)c1cccc(c1)C(=O)N(Cc1cc3c(cn1)OCCO3)[C@H](CC(C)(C)C)CO2 [Compound 758]
- activation at 10 µM [2]: > 60%

Compound: Cc1cccc(C)c1-c1nc2nc(c1C)OC[C@@H](CC(C)(C)C)N1Cc3cc(F)c(O)c(F)c3OC1c1cccc(c1)S(=O)(=O)N2 (stereo partly shown) [Compound 763]
- activation at 10 µM [1]: > 60%

Compound: Cc1cccc(C)c1-c1cc2nc(n1)NS(=O)(=O)c1cccc(c1)C(=O)N(Cc1nccc3ccccc13)[C@H](CC(C)(C)C)CO2 [Compound 767]
- EC50 (Table 10): < 1000 nM
- Emax [3]: > 60%

Compound: Cc1cccc(C)c1-c1cc2nc(n1)NS(=O)(=O)c1cccc(c1)C(=O)N(Cc1ccc(OCC(C)(C)C)cn1)[C@H](CC(C)(C)C)CO2 [Compound 768]
- EC50 (Table 10): 1000 to 3000 nM
- Emax [3]: > 60%

Compound: COc1c(F)cc(CN2C(=O)c3cccc(c3)S(=O)(=O)Nc3nc(cc(-c4c(C)cccc4C)n3)OC[C@H]2CC(C)(C)C)cc1F [Compound 769]
- activation at 10 µM [1]: > 60%

Compound: COc1ccc(CN2C(=O)c3cccc(c3)S(=O)(=O)Nc3nc(cc(-c4c(C)cccc4C)n3)OC[C@H]2CC(C)(C)C)cc1 [Compound 770]
- EC50 (Table 10): < 1000 nM
- Emax [3]: > 60%

Compound: Cc1cccc(C)c1-c1cc2nc(n1)NS(=O)(=O)c1cccc(c1)C(=O)N(Cc1ncccc1CCC(C)(C)ON)[C@H](CC(C)(C)C)CO2 [Compound 771]
- activation at 10 µM [1]: > 60%
- EC50 (Table 10): < 1000 nM
- Emax [3]: > 60%

Compound: COc1cnc(CN2C(=O)c3cccc(c3)S(=O)(=O)Nc3nc(cc(-c4c(C)cccc4C)n3)OC[C@H]2CC(C)(C)C)nc1 [Compound 772]
- EC50 (Table 10): < 1000 nM
- Emax [3]: > 60%

Compound: COc1ccnc(CN2C(=O)c3cccc(c3)S(=O)(=O)Nc3nc(cc(-c4c(C)cccc4C)n3)OC[C@H]2CC(C)(C)C)n1 [Compound 773]
- EC50 (Table 10): < 1000 nM
- Emax [3]: > 60%

Compound: Cc1cccc(C)c1-c1cc2nc(n1)NS(=O)(=O)c1cccc(c1)C(=O)N(Cc1cnnn1C)[C@H](CC(C)(C)C)CO2 [Compound 774]
- activation at 10 µM [2]: > 60%

Compound: CNC(=O)COc1ccccc1CN1C(=O)c2cccc(c2)S(=O)(=O)Nc2nc(cc(-c3c(C)cccc3C)n2)OC[C@H]1CC(C)(C)C [Compound 775]
- activation at 10 µM [1]: > 60%

Compound: CNC(=O)COc1ccccc1CN1C(=O)c2cccc(c2)S(=O)(=O)Nc2nc(cc(-c3c(C)cccc3C)n2)OC[C@H]1CC(C)(C)C [Compound 776]
- EC50 (Table 10): < 1000 nM
- Emax [3]: > 60%

Compound: Cc1cccc(C)c1-c1cc2nc(n1)NS(=O)(=O)c1cccc(c1)C(=O)N(Cc1ccccc1OCC(=O)NN)[C@H](CC(C)(C)C)CO2 [Compound 777]
- activation at 10 µM [1]: > 60%

Compound: CNC(=O)COc1ccc(CN2C(=O)c3cccc(c3)S(=O)(=O)Nc3nc(cc(-c4c(C)cccc4C)n3)OC[C@H]2CC(C)(C)C)cc1 [Compound 778]
- EC50 (Table 10): < 1000 nM
- Emax [3]: > 60%

Compound: Cc1cccc(C)c1-c1cc2nc(n1)NS(=O)(=O)c1cccc(c1)C(=O)N(Cc1ccc(OCC(=O)N(C)C)cc1)[C@H](CC(C)(C)C)CO2 [Compound 779]
- EC50 (Table 10): < 1000 nM
- Emax [3]: > 60%

Compound: Cc1cccc(C)c1-c1cc2nc(n1)NS(=O)(=O)c1cccc(c1)C(=O)N(Cc1ccc(OCC(N)=O)cc1)[C@H](CC(C)(C)C)CO2 [Compound 780]
- EC50 (Table 10): < 1000 nM
- Emax [3]: > 60%

Compound: Cc1cccc(C)c1-c1cc2nc(n1)NS(=O)(=O)c1cccc(c1)C(=O)N(Cc1ccccc1OCC(C)(C)OO)[C@H](CC(C)(C)C)CO2 [Compound 781]
- EC50 (Table 10): < 1000 nM
- Emax [3]: > 60%

Compound: Cc1cccc(C)c1-c1cc2nc(n1)NS(=O)(=O)c1cccc(c1)C(=O)N(Cc1ccc(-c3cnc(N)nc3)cc1)[C@H](CC(C)(C)C)CO2 [Compound 782]
- EC50 (Table 10): < 1000 nM
- Emax [3]: > 60%

Compound: COc1ncc(-c2ccc(CN3C(=O)c4cccc(c4)S(=O)(=O)Nc4nc(cc(-c5c(C)cccc5C)n4)OC[C@H]3CC(C)(C)C)cc2)cn1 [Compound 783]
- EC50 (Table 10): < 1000 nM
- Emax [3]: > 60%

Compound: Cc1cccc(C)c1-c1cc2nc(n1)NS(=O)(=O)c1cccc(c1)C(=O)N(Cc1ccc3c(n1)C(C)CCO3)C(CC(C)(C)C)CO2 (stereo not shown) [Compound 794]
- Emax [3]: > 60%

Compound: Cc1cccc(C)c1-c1cc2nc(n1)NS(=O)(=O)c1cccc(c1)C(=O)N(Cc1ccc([Si](C)(C)C)cc1)[C@H](CC(C)(C)C)CO2 [Compound 795]
- activation at 10 µM [1]: > 60%

Compound: Cc1cccc(C)c1-c1cc2nc(n1)NS(=O)(=O)c1cccc(c1)C(=O)N(Cc1ccc(C3=CCCC3)cn1)[C@H](CC(C)(C)C)CO2 [Compound 810]
- EC50 (Table 11): < 1000 nM
- Emax [4]: > 60%

Compound: Cc1cccc(C)c1-c1cc2nc(n1)NS(=O)(=O)c1cccc(c1)C(=O)N(Cc1cc(CO)ccn1)[C@H](CC(C)(C)C)CO2 [Compound 811]
- EC50 (Table 11): < 1000 nM
- Emax [4]: > 60%

Compound: Cc1cccc(C)c1-c1cc2nc(n1)NS(=O)(=O)c1cccc(c1)C(=O)N(Cc1cc(C(C)(C)O)ccn1)[C@H](CC(C)(C)C)CO2 [Compound 812]
- EC50 (Table 11): < 1000 nM
- Emax [4]: > 60%

Compound: Cc1cccc(C)c1-c1cc2nc(n1)NS(=O)(=O)c1cccc(c1)C(=O)N(Cc1nccc(C(C)(C)O)n1)[C@H](CC(C)(C)C)CO2 [Compound 813]
- EC50 (Table 11): < 1000 nM
- Emax [4]: > 60%

Compound: Cc1cccc(C)c1-c1cc2nc(n1)NS(=O)(=O)c1cccc(c1)C(=O)N(Cc1nccc(C(C)(C)C)n1)[C@H](CC(C)(C)C)CO2 [Compound 814]
- EC50 (Table 11): < 1000 nM
- Emax [4]: > 60%

Compound: Cc1cccc(C)c1-c1cc2nc(n1)NS(=O)(=O)c1cccc(c1)C(=O)N(Cc1ncc(C(C)(C)C)cn1)[C@H](CC(C)(C)C)CO2 [Compound 815]
- EC50 (Table 11): < 1000 nM
- Emax [4]: > 60%

Compound: Cc1cccc(C)c1-c1cc2nc(n1)NS(=O)(=O)c1cccc(c1)C(=O)N(Cc1cccc(CO)n1)[C@H](CC(C)(C)C)CO2 [Compound 816]
- EC50 (Table 11): < 1000 nM
- Emax [4]: > 60%

Compound: Cc1cccc(C)c1-c1cc2nc(n1)NS(=O)(=O)c1cccc(c1)C(=O)N(Cc1cccc(C(C)(C)O)n1)[C@H](CC(C)(C)C)CO2 [Compound 817]
- EC50 (Table 11): < 1000 nM
- Emax [4]: > 60%

Compound: Cc1cccc(C)c1-c1cc2nc(n1)NS(=O)(=O)c1cccc(c1)C(=O)N(CC1CCCOC1)[C@H](CC(C)(C)C)CO2 (stereo partly shown) [Compound 818]
- EC50 (Table 11): < 1000 nM
- Emax [4]: > 60%

Compound: Cc1cccc(C)c1-c1cc2nc(n1)NS(=O)(=O)c1cccc(c1)C(=O)N(CC1CCCOC1)[C@H](CC(C)(C)C)CO2 (stereo partly shown) [Compound 819]
- EC50 (Table 11): < 1000 nM

Compound: Cc1cccc(C)c1-c1cc2nc(n1)NS(=O)(=O)c1cccc(c1)C(=O)N(CC1CCOCC1)[C@H](CC(C)(C)C)CO2 [Compound 820]
- EC50 (Table 11): < 1000 nM
- Emax [4]: > 60%

Compound: Cc1cccc(C(C)C)c1-c1cc2nc(n1)NS(=O)(=O)c1cccc(c1)C(=O)N(Cc1ccc(N3CCOCC3)cn1)[C@H](CC(C)(C)C)CO2 [Compound 821]
- activation at 10 µM [2]: > 60%
- EC50 (Table 11): < 1000 nM
- Emax [4]: > 60%

Compound: Cc1cccc(C)c1-c1cc2nc(n1)NS(=O)(=O)c1cccc(c1)C(=O)N(Cc1cn(C)nc1C)[C@H](CC(C)(C)C)CO2 [Compound 822]
- activation at 10 µM [1]: > 60%

Compound: Cc1cccc(C)c1-c1cc2nc(n1)NS(=O)(=O)c1cccc(c1)C(=O)N(Cc1cnn(C(C)C)c1)[C@H](CC(C)(C)C)CO2 [Compound 823]
- activation at 10 µM [1]: > 60%
- Emax [3]: > 60%

Compound: Cc1cccc(C)c1-c1cc2nc(n1)NS(=O)(=O)c1cccc(c1)C(=O)N(Cc1cnn(C)c1C)[C@H](CC(C)(C)C)CO2 [Compound 824]
- activation at 10 µM [1]: > 60%

Compound: Cc1cccc(C)c1-c1cc2nc(n1)NS(=O)(=O)c1cccc(c1)C(=O)N(Cc1ccn(C)n1)[C@H](CC(C)(C)C)CO2 [Compound 825]
- activation at 10 µM [1]: > 60%

Compound: Cc1cccc(C)c1-c1cc2nc(n1)NS(=O)(=O)c1cccc(c1)C(=O)N(Cc1cnn(C)c1)[C@H](CC(C)(C)C)CO2 [Compound 826]
- activation at 10 µM [1]: > 60%

Compound: Cc1cccc(C)c1-c1cc2nc(n1)NS(=O)(=O)c1cccc(c1)C(=O)N(Cc1ccnn1C)[C@H](CC(C)(C)C)CO2 [Compound 827]
- activation at 10 µM [1]: > 60%

Compound: Cc1cccc(C)c1-c1cc2nc(n1)NS(=O)(=O)c1cccc(c1)C(=O)N(Cc1cc(C)n(C)n1)[C@H](CC(C)(C)C)CO2 [Compound 828]
- activation at 10 µM [1]: > 60%

Compound: CC(C)c1cccc(C(C)C)c1-c1cc2nc(n1)NS(=O)(=O)c1cccc(c1)C(=O)N(Cc1ccc(N3CCCCC3)cn1)[C@H](CC(C)(C)C)CO2 [Compound 829]
- activation at 10 µM [1]: > 60%

Compound: CC(C)c1cccc(C(C)C)c1-c1cc2nc(n1)NS(=O)(=O)c1cccc(c1)C(=O)N(Cc1ncc(N3CCOCC3)cn1)[C@H](CC(C)(C)C)CO2 [Compound 830]
- Emax [3]: > 60%

Compound: CC(C)c1cccc(C(C)C)c1-c1cc2nc(n1)NS(=O)(=O)c1cccc(c1)C(=O)N(Cc1ccc(N3CCOCC3)cn1)[C@H](CC(C)(C)C)CO2 [Compound 831]
- Emax [3]: > 60%
